Legend:
BRAF V600E = biological target: T1, BRAF V600E (Homo sapiens, UniProt P15056, V600E); experiment: Cellular assay of target protein degradation, T-Rex 293 cells stably transfected with HA-BRAF_V600E (HA immunofluorescence, high content imaging); type: cell-based; settings: T-Rex 293 HA-BRAF V600E; for DC50: half maximal degradation, read-out: BRaf V600E DC50; for Dmax: maximum degradation observed
T1 construct: expressed in transfected cells
Summary of the method: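 Degradation of the HA-tagged construct is measured after 24 h treatment at 37 °C across 1 μM to 0.1 nM in 0.1% DMSO, in doxycycline-induced (1 ng/mL) cells. DC50 and Dmax come from HA fluorescence imaging.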

BRAF G466V = biological target: T2, BRAF G466V (Homo sapiens, UniProt P15056, G466V); experiment: Cellular assay of target protein degradation, T-Rex 293 cells stably transfected with HA-BRAF G466V (HA immunofluorescence, high content imaging); type: cell-based; settings: T-Rex 293 HA-BRAF G466V; for DC50: half maximal degradation, read-out: BRaf G466V DC50; for Dmax: maximum degradation observed
T2 construct: expressed in transfected cells
Summary of the method: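 Dose range spans 30 nM to 3 pM (0.1% DMSO) over 24 hours at 37° C, in cells induced with 0.75 ng/mL doxycycline. Fixed cells are probed with anti-HA antibody overnight at 4° C, then imaged; half-maximal degradation and maximum degradation are derived.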

T2 sequence (P15056 whole entry G466V): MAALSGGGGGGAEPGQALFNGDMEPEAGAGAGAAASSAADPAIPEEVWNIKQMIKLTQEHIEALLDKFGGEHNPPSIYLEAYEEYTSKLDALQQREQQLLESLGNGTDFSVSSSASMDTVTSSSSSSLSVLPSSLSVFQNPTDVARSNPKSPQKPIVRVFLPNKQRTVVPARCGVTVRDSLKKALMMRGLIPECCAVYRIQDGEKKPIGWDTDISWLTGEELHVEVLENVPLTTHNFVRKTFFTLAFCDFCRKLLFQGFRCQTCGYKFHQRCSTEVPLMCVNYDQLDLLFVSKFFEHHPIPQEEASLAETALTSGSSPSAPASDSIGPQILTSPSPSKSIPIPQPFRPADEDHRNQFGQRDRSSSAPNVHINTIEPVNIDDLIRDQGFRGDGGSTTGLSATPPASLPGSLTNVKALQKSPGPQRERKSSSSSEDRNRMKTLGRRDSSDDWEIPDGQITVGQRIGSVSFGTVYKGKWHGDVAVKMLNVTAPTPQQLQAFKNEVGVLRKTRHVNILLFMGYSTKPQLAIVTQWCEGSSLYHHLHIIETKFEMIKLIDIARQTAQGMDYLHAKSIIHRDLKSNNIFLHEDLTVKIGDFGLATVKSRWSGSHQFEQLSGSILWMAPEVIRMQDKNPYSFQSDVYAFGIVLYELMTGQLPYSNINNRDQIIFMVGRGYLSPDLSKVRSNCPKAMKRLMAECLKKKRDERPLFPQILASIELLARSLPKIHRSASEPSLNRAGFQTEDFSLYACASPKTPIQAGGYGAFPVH
T1 sequence (P15056 whole entry V600E): as the sequence (P15056 whole entry G466V) above, with V466G, V600E counted along it

Compound	DC50 (BRAF V600E) [nM]	Dmax (BRAF V600E) [%]	DC50 (BRAF G466V) [nM]	Dmax (BRAF G466V) [%]
O=C1CC[C@@H](N2Cc3cc(OC[C@H](O)CN4CC5(C4)CN(c4ccc(-c6cnc7[nH]cc(C(=O)c8c(F)ccc(NS(=O)(=O)N9CC[C@@H](F)C9)c8F)c7c6)cc4)C5)ccc3C2=O)C(=O)N1 [Compound 124, (3R)—N-[3-[5-[4-[6-[(2R)-3-[2-[(3R)-2,6-dioxo-3-piperidyl]-1-oxo-isoindolin-5-yl]oxy-2-hydroxy-propyl]-2,6-diazaspiro[3.3]heptan-2-yl]phenyl]-1H-pyrrolo[2,3-b]pyridine-3-carbonyl]-2,4-difluoro-phenyl]-3-fluoro-pyrrolidine-1-sulfonamide]	5 to 50	35 to 70	1 to 10	> 70
COc1cc(C2CCN(CC3CCN(c4ccc(-c5cnc6[nH]cc(C(=O)c7c(F)ccc(NS(=O)(=O)N8CC[C@@H](F)C8)c7F)c6c5)cc4F)CC3)CC2)cc2c1C(=O)N(C1CCC(=O)NC1=O)C2 (stereo partly drawn) [Compound 163, (3R)-N-[3-(5-{4-[4-({4-[2-(2,6-dioxopiperidin-3-yl)-7-methoxy-1-oxo-2,3-dihydro-1H-isoindol-5-yl]piperidin-1-yl}methyl)piperidin-1-yl]-3-fluorophenyl}-1H-pyrrolo [2,3-b]pyridine-3-carbonyl)-2,4-difluorophenyl]-3-fluoropyrrolidine-1-sulfonamide]	5 to 50	35 to 70	1 to 10	> 70
O=C1CC[C@H](N2Cc3cc(N4CCC(OC5CCN(c6ccc(-c7cnc8[nH]cc(C(=O)c9c(F)ccc(NS(=O)(=O)N%10CC[C@@H](F)C%10)c9F)c8c7)cc6)CC5)CC4)ccc3C2=O)C(=O)N1 [Compound 34, (3R)-N-{3-[5-(4-{4-[(1-{2-[(3S)-2,6-dioxopiperidin-3-yl]-1-oxo-2,3-dihydro-1H-isoindol-5-yl}piperidin-4-yl)oxy]piperidin-1-yl}phenyl)-1H-pyrrolo [2,3-b]pyridine-3-carbonyl]-2,4-difluorophenyl}-3-fluoropyrrolidine-1-sulfonamide]	50 to 500	35 to 70	1 to 10	35 to 70
O=C1CC[C@@H](N2Cc3cc([C@@H](O)CCN4CCC(c5ccc(-c6cnc7[nH]cc(C(=O)c8c(F)ccc(NS(=O)(=O)N9CC[C@@H](F)C9)c8F)c7c6)cc5)CC4)ccc3C2=O)C(=O)N1 [Compound 72, (3R)-N-{3-[5-(4-{1-[(3S)-3-{2-[(3R)-2,6-dioxopiperidin-3-yl]-1-oxo-2,3-dihydro-1H-isoindol-5-yl}-3-hydroxypropyl]piperidin-4-yl}phenyl)-1H-pyrrolo[2,3-b]pyridine-3-carbonyl]-2,4-difluorophenyl}-3-fluoropyrrolidine-1-sulfonamide]	5 to 50	< 35	1 to 10	35 to 70
O=C1CCC(N2Cc3cc(CN4CCN(c5ccc(-c6cnc7[nH]cc(C(=O)c8c(F)ccc(NS(=O)(=O)N9CC[C@@H](F)C9)c8F)c7c6)cc5)C[C@H]4CO)ccc3C2=O)C(=O)N1 (stereo partly drawn) [Compound 112, (3R)-N-[3-(5-{4-[(3S)-4-{[2-(2,6-dioxopiperidin-3-yl)-1-oxo-2,3-dihydro-1H-isoindol-5-yl]methyl}-3-(hydroxymethyl)piperazin-1-yl]phenyl}-1H-pyrrolo [2,3-b]pyridine-3-carbonyl)-2,4-difluorophenyl]-3-fluoropyrrolidine-1-sulfonamide]	50 to 500	< 35	10 to 30	35 to 70
O=C1CC[C@@H](NC(=O)c2ccc(N3CCN(CCc4ccc(-c5cnc6[nH]cc(C(=O)c7c(F)ccc(NS(=O)(=O)N8CC[C@@H](F)C8)c7F)c6c5)cc4)CC3)cc2F)C(=O)N1 [Compound 28, 4-{4-[2-(4-{3-[2,6-difluoro-3-({[(3R)-3-fluoropyrrolidin-1-yl]sulfonyl}amino)benzoyl]-1H-pyrrolo[2,3-b]pyridin-5-yl}phenyl)ethyl]piperazin-1-yl}-N-[(3R)-2,6-dioxopiperidin-3-yl]-2-fluorobenzamide]	50 to 500	> 70	< 1	35 to 70
O=C1CCN(c2ccc(N3CCC(CN4CC5(C4)CN(c4ccc(-c6cnc7[nH]cc(C(=O)c8c(F)ccc(NS(=O)(=O)N9CC[C@@H](F)C9)c8F)c7c6)cc4)C5)CC3)cc2F)C(=O)N1 [Compound 156, (3R)-N-[3-(5-{4-[6-({1-[4-(2,4-dioxo-1,3-diazinan-1-yl)-3-fluorophenyl]piperidin-4-yl}methyl)-2,6-diazaspiro[3.3]heptan-2-yl]phenyl}-1H-pyrrolo[2,3-b]pyridine-3-carbonyl)-2,4-difluorophenyl]-3-fluoropyrrolidine-1-sulfonamide]	5 to 50	35 to 70	1 to 10	> 70

Other lines, results leading:

DC50 (BRAF V600E) [nM]	Dmax (BRAF V600E) [%]	DC50 (BRAF G466V) [nM]	Dmax (BRAF G466V) [%]	Compound
5 to 50	35 to 70	1 to 10	> 70	O=C1CCC(N2Cc3cc(C4CCN(CC5CCN(c6cnc(-c7cnc8[nH]cc(C(=O)c9c(F)ccc(NS(=O)(=O)N%10CC[C@@H](F)C%10)c9F)c8c7)nc6)CC5)CC4)ccc3C2=O)C(=O)N1 (stereo partly drawn) [Compound 215, (3R)-N-[3-(5-{5-[4-({4-[2-(2,6-dioxopiperidin-3-yl)-1-oxo-2,3-dihydro-1H-isoindol-5-yl]piperidin-1-yl}methyl)piperidin-1-yl]pyrimidin-2-yl}-1H-pyrrolo[2,3-b]pyridine-3-carbonyl)-2,4-difluorophenyl]-3-fluoropyrrolidine-1-sulfonamide]
5 to 50	35 to 70	1 to 10	> 70	O=C1CCC(N2Cc3cc([C@H](O)CN4CC5(C4)CN(c4ccc(-c6cnc7[nH]cc(C(=O)c8c(F)ccc(NS(=O)(=O)N9CC[C@@H](F)C9)c8F)c7c6)cc4)C5)ccc3C2=O)C(=O)N1 (stereo partly drawn) [Compound 299, (3R)-N-{3-[5-(4-{6-[(2S)-2-[2-(2,6-dioxopiperidin-3-yl)-1-oxo-2,3-dihydro-1H-isoindol-5-yl]-2-hydroxyethyl]-2,6-diazaspiro[3.3]heptan-2-yl}phenyl)-1H-pyrrolo[2,3-b]pyridine-3-carbonyl]-2,4-difluorophenyl}-3-fluoropyrrolidine-1-sulfonamide]
5 to 50	35 to 70	1 to 10	> 70	CCCS(=O)(=O)Nc1ccc(F)c(C(=O)c2c[nH]c3ncc(-c4ccc(N5CCN(CC6CCN(c7ccc8c(c7)CN(C7CCC(=O)NC7=O)C8=O)CC6)CC5)cc4)cc23)c1F (centres unmarked) [Compound 244, N-[3-(5-{4-[4-({1-[2-(2,6-dioxopiperidin-3-yl)-1-oxo-2,3-dihydro-1H-isoindol-5-yl]piperidin-4-yl}methyl)piperazin-1-yl]phenyl}-1H-pyrrolo[2,3-b]pyridine-3-carbonyl)-2,4-difluorophenyl]propane-1-sulfonamide]
5 to 50	< 35	1 to 10	35 to 70	CNc1cc(-c2cnc3[nH]cc(C(=O)c4c(F)ccc(NS(=O)(=O)N5CC[C@@H](F)C5)c4F)c3c2)cc(NC)c1N1CCC(CN2CCC(c3ccc4c(c3)CN(C3CCC(=O)NC3=O)C4=O)CC2)CC1 (stereo partly drawn) [Compound 285, (3R)-N-[3-(5-{4-[4-({4-[2-(2,6-dioxopiperidin-3-yl)-1-oxo-2,3-dihydro-1H-isoindol-5-yl]piperidin-1-yl}methyl)piperidin-1-yl]-3,5-bis(methylamino)phenyl}-1H-pyrrolo[2,3-b]pyridine-3-carbonyl)-2,4-difluorophenyl]-3-fluoropyrrolidine-1-sulfonamide]

Reference: US12180193B2, “Accelerating fibrosarcoma protein degrading compounds and associated methods of use” (Arvinas Operations, Inc., priority 2020, dated 2024)
